Source: PMC4250379 (Neuroscience, 2014)

Biological target: T1, MD-2 (Homo sapiens, UniProt Q9Y6Y9)
T1 sequence (Q9Y6Y9 19-160): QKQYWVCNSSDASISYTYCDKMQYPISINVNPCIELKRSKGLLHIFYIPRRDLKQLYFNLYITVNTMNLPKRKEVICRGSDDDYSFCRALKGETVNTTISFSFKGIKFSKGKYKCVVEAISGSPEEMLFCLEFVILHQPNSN
Assay: quenching of MD-2 intrinsic Tyr/Trp fluorescence
Type: binding

## CN1CC[C@]23c4c5ccc(O[C@@H]6O[C@H](C(=O)O)[C@@H](O)[C@H](O)[C@H]6O)c4O[C@H]2[C@@H](O)C=C[C@H]3[C@H]1C5 [M3G, morphine-3-glucuronide]
  Kd: 1500 ± 300 nM
